Our source for the IC50 values is patent publication US8916577B2, “Tricyclic derivatives, process for their preparation and their use as kinase inhibitors” (Nerviano Medical Sciences S.R.L., priority 2011, dated 2014).

One assay concerns the target PIM-2 (Homo sapiens (Human), UniProt Q9P1W9). Put plainly: PIM-2 kinase inhibition assay: Dowex technique. Format: biochemical. The conditions noted are these: 1.5 nM enzyme, 4 microM ATP, Aktide 5 microM. The protocol: Method for PIM-2 Kinase Inhibition Assay: Dowex Technique
The buffer for PIM-2 assay was composed of HEPES 50 mM, at pH 7.5, with 1 mM MgCl2, 1 mM DTT, 3 microM Na3VO4, and 0.2 mg/mL BSA
Full-length human PIM-2 was expressed and purified as described in Fedorov O, et al., PNAS 2007 104, 51, 20523-28.
Enzyme concentration=1.5 nM
Aktide substrate (Chemical Abstract Service Registry Number 324029-01-8)=5 microM
See above: same procedure as described for PIM-1.

The target of another assay is MPS1 (Homo sapiens (Human), UniProt P33981). Put plainly: Biochemical assay for inhibitors of MPS1 kinase activity (33P-ATP trans-phosphorylation, Dowex). To be noted: 5 nM MPS1, 15 microM ATP, P38-β-tide 200 microM. From the text:
Cloning, Expression and Purification of Recombinant MPS1 Full Length Protein.
MPS1 full length (corresponding to residues 2-857 of the full length sequence, see Swiss-Prot accession number P33981) was PCR amplified from the full-length human MPS1 gene present in house as clone pGEX4t_MPS1.
Baculoviruses were generated by cotransfecting Sf9 insect cells with the expression vector and the viral DNA using the BaculoGold® transfection kit (Pharmingen). Viral supernatant was recovered after 5 days and subjected to 3 rounds of amplification to increase viral titer. Recombinant protein was produced by infecting High5 insect cells. After 72 hours of infection at 21° C., cells were recovered, pelletted and freezed at −80° C. For purification of recombinant protein, pellet was thawed, resuspended in lysis buffer (PBS, NaCl 150 mM, Glycerol 10%, CHAPS 0.1%, DTT 20 mM, protease and phosphatase inhibitors) and lysed by Gaulin. Lysate was cleared by centrifugation and loaded on a GST affinity column. After extensive wash, recombinant protein was cleaved by a specific protease and eluted by incubation.
To get a fully activated enzyme, the protein was then subjected to auto-phosphorylation in presence of ATP 1 mM at 25° C. for 2 hours in kinase buffer (Hepes pH7.5 50 mM, MgCl2 2.5 mM, MnCl2 1 mM, DTT 1 mM, phosphatase inhibitors); ATP was then removed whit a desalting column.
Biochemical Assay for Inhibitors of MPS1 Kinase Activity
(§1) The inhibitory activity of putative kinase inhibitors and the potency of selected compounds were determined using a trans-phosphorylation assay.
(§2) Specific peptide or protein substrates are trans-phosphorylated by their specific ser-thr or tyr kinase in the presence of ATP traced with ^33P-γ-ATP, and in the presence of their own optimal buffer and cofactors.
(§3) At the end of the phosphorylation reaction, more than 98% unlabeled ATP and radioactive ATP is captured by an excess of the ion exchange dowex resin; the resin then settles down to the bottom of the reaction plate by gravity.
Supernatant is subsequently withdrawn and transferred into a counting plate, then evaluated by P-counting.
The buffer for MPS1 assay was composed of HEPES 50 mM, at pH 7.5, with 2.5 mM MgCl2, 1 mM MnCl2, 1 mM DTT, 3 microM Na3VO4, 2 mM P-glycerophosphate and 0.2 mg/mL BSA.
The assay was run with a final concentration MPS1 of 5 nM, in the presence of 15 microM ATP and 1.5 nM ^33P-γ-ATP; the substrate was P38-β-tide, used at 200 microM.
(§4) The test mix consisted of:
(§5) 1) 3× Enzyme mix (done in Kinase Buffer 3×), 5 microL/well
(§6) 2) 3× substrate and ATP mix (done in ddH2O), together with ^33P-γ-ATP, 5 microL/well
(§7) 3) 3× test compounds (diluted into ddH2O—3% DMSO)—5 microL/well
a) for percent inhibition studies (HTS), individual dilution plates at 1 mM are diluted at a 3× concentration (30 microM) in ddH2O (3% DMSO=final concentration) using a Beckman NX automated pipetting platform. The same instrument is used for distributing the diluted mother plates into the test plates. b) for IC50 determination (KSS platform), 100 μl of each compound at 1 mM in 100% DMSO are transferred from the original plate into the first column of another 96 well plate (A1 to G1); well H1 is left empty for the internal standard inhibitor, usually staurosporine.
An automated station for serial dilutions (Biomek FX, Beckman) is used for producing 1:3 dilutions in 100% DMSO, from line A1 to A10, and for all the seven compounds in the column. Moreover, 4-5 copies of daughter plates are prepared by reformatting 5 microL of this first set of 100% DMSO dilution plates into 384 deep well-plates: one copy of the daughter plates with the serial dilutions of test compounds will be thaw the day of the experiments, reconstituted at a 3× concentration with water and used in the IC50 determination assays. In a standard experiment, the highest concentration (3×) of all compounds is 30 microM, while the lowest one is 1.5 nM. […]

A further assay deals with PIM-1 (Homo sapiens (Human), UniProt P11309). Put plainly: Biochemical assay for inhibitors of PIM-1 kinase activity (33P-ATP trans-phosphorylation, Dowex). The conditions noted are these: 1 nM enzyme, 200 microM ATP, Aktide 25 microM. As for the experimental part:
Biochemical Assay for Inhibitors of PIM-1 Kinase Activity
as §1, §2, §3
Supernatant is subsequently withdrawn and transferred into a counting plate, then evaluated by (3-counting.
The buffer for PIM-1 assay was composed of HEPES 50 mM, at pH 7.5, with 10 mM MgCl2, 1 mM DTT, 3 microM NaVO3, and 0.2 mg/mL BSA
Full-length human PIM-1 was expressed and purified as described in Bullock A N, et al., J. Biol. Chem. 2005, 280, 41675-82.
1.7 microM PIM1 was incubated 1 hour RT at 28° C. in the presence of 125 microM ATP
ATP concentration: 200 microM
Enzyme concentration: 1 nM
Substrate concentration Aktide (Chemical Abstract Service Registry Number 324029-01-8): 25 microM
as §4, §5, §6, §7
For IC50 determination, test compounds are received as a 1 mM solution in 100% DMSO and distributed into 96-well plates: compounds are then plated into the first column of a new 96-well plate (A1 to G1), 100 microL/well.
An automated station (Biomek FX, Beckman) is used for serial dilutions, producing 1:3 dilutions in 100% DMSO, from line A1 to A10, for all the compounds in the column. […]
Data are analyzed by an internally customized version of the “Assay Explorer” SW package, which provides sigmoidal fitting of the ten-dilution curves for IC50 determination in secondary assay/hit confirmation routines.

Structures can show the parent of a compound that is named as a salt.

MPS1, sequence (P33981 2-857): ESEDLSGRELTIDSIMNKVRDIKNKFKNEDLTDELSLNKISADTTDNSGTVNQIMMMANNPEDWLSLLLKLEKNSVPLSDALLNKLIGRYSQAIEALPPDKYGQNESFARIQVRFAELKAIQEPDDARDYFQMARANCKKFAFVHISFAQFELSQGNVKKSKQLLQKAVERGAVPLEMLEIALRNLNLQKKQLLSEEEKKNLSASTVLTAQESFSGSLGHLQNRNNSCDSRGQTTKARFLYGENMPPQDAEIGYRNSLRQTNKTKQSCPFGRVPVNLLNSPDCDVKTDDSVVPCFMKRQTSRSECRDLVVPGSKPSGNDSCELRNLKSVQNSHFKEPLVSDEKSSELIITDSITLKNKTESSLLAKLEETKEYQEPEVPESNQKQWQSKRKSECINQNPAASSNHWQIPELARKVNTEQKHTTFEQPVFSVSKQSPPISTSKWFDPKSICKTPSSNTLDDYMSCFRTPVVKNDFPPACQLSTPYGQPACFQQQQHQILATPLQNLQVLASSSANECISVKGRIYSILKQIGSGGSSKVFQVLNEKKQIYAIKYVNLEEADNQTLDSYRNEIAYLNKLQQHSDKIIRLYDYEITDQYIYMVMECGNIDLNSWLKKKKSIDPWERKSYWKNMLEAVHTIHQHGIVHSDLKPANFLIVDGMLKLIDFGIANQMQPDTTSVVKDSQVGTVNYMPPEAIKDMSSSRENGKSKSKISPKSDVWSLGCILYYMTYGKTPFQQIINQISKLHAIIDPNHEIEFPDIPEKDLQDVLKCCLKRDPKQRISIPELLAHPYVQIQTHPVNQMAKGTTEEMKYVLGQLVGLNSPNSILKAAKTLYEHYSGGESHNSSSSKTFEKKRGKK
PIM-1, sequence (P11309 whole entry): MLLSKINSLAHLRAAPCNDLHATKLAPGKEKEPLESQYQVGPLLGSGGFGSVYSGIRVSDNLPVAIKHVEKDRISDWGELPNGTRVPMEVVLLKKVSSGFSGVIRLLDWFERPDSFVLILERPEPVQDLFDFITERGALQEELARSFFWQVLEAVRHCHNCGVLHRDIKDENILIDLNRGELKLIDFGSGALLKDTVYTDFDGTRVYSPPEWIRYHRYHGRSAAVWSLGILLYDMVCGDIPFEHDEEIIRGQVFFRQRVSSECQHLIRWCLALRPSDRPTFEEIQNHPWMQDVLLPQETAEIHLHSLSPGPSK
PIM-2, sequence (Q9P1W9 whole entry): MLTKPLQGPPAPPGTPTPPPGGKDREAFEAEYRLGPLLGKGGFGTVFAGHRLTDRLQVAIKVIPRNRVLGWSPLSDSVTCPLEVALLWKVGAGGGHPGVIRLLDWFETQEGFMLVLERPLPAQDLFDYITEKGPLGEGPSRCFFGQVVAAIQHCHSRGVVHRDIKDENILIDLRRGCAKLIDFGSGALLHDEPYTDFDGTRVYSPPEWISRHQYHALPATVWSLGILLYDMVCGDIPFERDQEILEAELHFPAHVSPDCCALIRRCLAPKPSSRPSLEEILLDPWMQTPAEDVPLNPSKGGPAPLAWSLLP

Turning to `CN1CCN(c2ccc(Nc3ncc4c(n3)-c3c(c(C(N)=O)nn3C)CCC4)cc2)CC1` [Compound 67, 1-methyl-9-{[4-(4-methylpiperazin-1-yl)phenyl]amino}-1,4,5,6-tetrahydropyrazolo[4′,3′:6,7]cyclohepta[1,2-d]pyrimidine-3-carboxamide trifluoroacetate], the IC50 on PIM-2 turned out to be 3.6 µM; against MPS1, 1.2 µM; on PIM-1 it was 2.45 µM.
On the same counts, the results for `COc1cc(N2CCN(C)CC2)ccc1Nc1ncc2c(n1)-c1c(c(C(N)=O)nn1C)CCC2` [Compound 3, 9-{[2-methoxy-4-(4-methylpiperazin-1-yl)phenyl]amino}-1-methyl-1,4,5,6-tetrahydropyrazolo[4′,3′:6,7]cyclohepta[1,2-d]pyrimidine-3-carboxamide] are 5.91 µM, 0.194 µM and 1.32 µM.
On the same counts, the results for `COc1cc(C(=O)NC2CCN(C)CC2)ccc1Nc1ncc2c(n1)-c1c(c(C(=O)N[C@H](CN)c3ccccc3)nn1C)CCC2` [Compound 5, N-[(1S)-2-amino-1-phenylethyl]-9-({2-methoxy-4-[(1-methylpiperidin-4-yl)carbamoyl]phenyl}amino)-1-methyl-1,4,5,6-tetrahydropyrazolo[4′,3′:6,7]cyclohepta[1,2-d]pyrimidine-3-carboxamide dihydrochloride] are 3.76 µM, 0.469 µM and 0.497 µM.
